Test results from ChEMBL document CHEMBL1811798, “Synthesis and evaluation of 2'-O-allyl substituted dinucleotide cap analog for mRNA translation” (Bioorg Med Chem, 2010).
Calls of active or inactive are those of the source. The calls are words filed in the database; no cut-off is given here.

What was measured:
Nucleic Acid [1] = experiment: Capping efficiency on beta-actin mRNA using [alpha-32P]-ATP at 1.6 mM after 2 hrs by gel shift assay in presence of T7 RNA polymerase; assay type: nucleic-acid assay
Nucleic Acid [2] = experiment: Capping efficiency on beta-actin mRNA using [alpha-32P]-ATP at 1.6 mM after 2 hrs by HPLC analysis in presence of T7 RNA polymerase; assay type: nucleic-acid assay
Escherichia phage T7 = experiment: Binding affinity to bacteriophage T7 RNA polymerase assessed as incorporation of compound into supercoiled mRNA transcript at 6 mM after 2 hrs
HeLa = experiment: Translational efficiency bacteriophage T7 RNA polymerase expressed in human HeLa cells assessed as protein production using 5'-capped RAN after 16 hrs of post-transfection by luciferase reporter gene assay relative to standard cap analog; assay type: cell-based; conditions: Escherichia phage T7

In the case of `C=CCO[C@@H]1[C@H](O)[C@@H](COP(=O)(O)OP(=O)([O-])OP(=O)(O)OC[C@H]2O[C@@H](n3cnc4c(=O)[nH]c(N)nc43)[C@H](O)[C@@H]2O)O[C@H]1[n+]1cn(C)c2c(=O)[nH]c(N)nc21`, the Activity (Nucleic Acid [1]) is reported as 70%, the Activity (Nucleic Acid [2]) is reported as “Active” and the Activity (Escherichia phage T7) is reported as “Active”. The fold change (FC) (HeLa) was 1.7.
